Source: patent US20180057580A1, “ANTI-GREMLIN-1 (GREM1) ANTIBODIES AND METHODS OF USE THEREOF FOR TREATING PULMONARY ARTERIAL HYPERTENSION” (priority 2016, published 2018)

How the values were obtained:
[1] = test system: Sugen 5416/chronic hypoxia mouse model; assay: Study 3: 6 weeks Sugen5416/chronic hypoxia mouse model of pulmonary hypertension, ultrasound assessment; format: in vivo
Procedure: Eleven to thirteen week old Taconic C57BL/6 mice were used. Mice were separated into treatment groups by weight such that starting body weights were similar among different groups. Cages were selected to either remain at about 21% O2 (normobaric normoxia) or placed into 10% O2 (normobaric hypoxia) chamber (a modified 3′ Semi-Rigid Isolator unit, Charles River) that maintained low O2 levels with adjustment of N2 flow to a steady intake of room air. Mice were administered Sugen5416 (Sigma, Cat#58442; VEGFR inhibitor subcutaneously at 20 mg/kg weekly for 6 weeks) and drugs or saline starting on day 21. A group of mice (n=10) housed in normobaric normoxia cages were subcutaneously administered saline at 5 mL/kg twice per week for three weeks, while mice housed in normobaric hypoxia cages were separated into 5 treatment groups including a group of mice (n=10) subcutaneously treated with saline at 5 mL/kg twice per week for three weeks, a group of mice (n=9) orally administered Bosentan (Sequoia Research Products Cat SRP02325b) at 300 mg/kg every day for three weeks, a group of mice (n=10) subcutaneously administered an isotype control antibody at 25 mg/kg twice per week for three weeks, a group of mice (n=10) subcutaneously treated with the anti-Gremlin-1 antibody at 25 mg/kg twice a week for three weeks, a group of mice (n=9) subcutaneously treated with an anti-Gremlin-1 antibody at 25 mg/kg twice a week for three weeks and orally administered Bosentan at 300 mg/kg every day for three weeks. [table] On the last day of the study, pulmonary artery size and right ventricular function and dimensions were assessed in each mouse using a high frequency ultrasound system (Vevo 2100, VisualSonics). For the assessment, mice were anesthetized (with 1.5% isoflurane at a rate of 1.0 cc/mL of medical grade air) and their temperature was monitored with a rectal temperature probe and held at approximately 37° C. with a heated platform (MouseMonitorS, Indus Instruments) and a warming lamp. Both brightness-mode (B-mode) and motion-mode (M-mode) imaging were used. B-mode imaging of the mouse heart in cross-section was used to determine pulmonary artery cross-sectional area (PA CSA) at the level of the pulmonary valve. M-mode imaging was used to determine the pulsed wave velocity time integral (VTI), which is derived from the area under the curve of representative Doppler tracings of blood flow through the pulmonary artery. Right ventricular stroke volume (RV SV) was calculated from the product of PA CSA and VTI. Right ventricular cardiac output (RV CO) was calculated from the product of SV and heart rate (HR). M-mode imaging was used to determine right ventricular free wall (RVFW) thickness during diastole and systole. Animals were returned to their home cages before right ventricular pressure assessment.

[2] = test system: chronic hypoxia-induced pulmonary arterial hypertension mouse model; assay: Study 1: 4 week chronic hypoxia mouse model of pulmonary arterial hypertension, ultrasound assessment; format: in vivo; conditions: study not given
Text: For both studies, eleven to thirteen-week-old Taconic C57BL/6 mice were used. Mice were separated into treatment groups by weight such that starting body weights were similar among different groups. Cages were selected to either remain at about 21% O2 (normobaric normoxia) or placed into a 10% O2 (normobaric hypoxia) chamber (a modified 3′ Semi-Rigid Isolator unit, Charles River) that maintained low O2 levels with adjustment of N2 flow to a steady intake of room air.
For the first study (Study 1), mice were administered drugs or saline starting on day 14. […]
On the last day of each study, pulmonary artery size and right ventricular function and dimensions were assessed in each mouse using a high frequency ultrasound system (Vevo 2100, VisualSonics). For the assessment, mice were anesthetized (with 1.5% isoflurane at a rate of 1.0 cc/mL of medical grade air) and their temperature was monitored with a rectal temperature probe and held at approximately 37° C. with a heated platform (MouseMonitorS, Indus Instruments) and a warming lamp. […] Right ventricular stroke volume (RV SV) was calculated from the product of PA CSA and VTI. Right ventricular cardiac output (RV CO) was calculated from the product of SV and heart rate (HR). […]

[3] = Study 3, normobaric hypoxia + Sugen5416 6 weeks, 300 mg/kg PO daily from day 21

Molecule	PA CSA greater than hypoxic saline-treated group ([1]; Study 3, Sugen5416/hypoxia, 300 mg/kg PO daily, significant) [%]	Heart rate (Ave ± SEM) [1, 3] [beats/min]	PA CSA (Ave ± SEM) [1, 3]	Right Ventricular cardiac output (Ave ± SEM) [1, 3]	Stroke Volume (Ave ± SEM) [1, 3]	Pulmonary artery size (cross-sectional area), result in words ([2]; FIG. 1A legend)	Right ventricular stroke volume, result in words ([2]; FIG. 1B legend)
COc1ccccc1Oc1c(NS(=O)(=O)c2ccc(C(C)(C)C)cc2)nc(-c2ncccn2)nc1OCCO [Bosentan]	~43	509.7 ± 18.9	1.724 ± 0.074^%%% mm^2	17.81 ± 1.46^%% ml/min	35.51 ± 3.22^%% ul		
H4H6245P: fully human anti-GREM1 antibody, HCVR/LCVR SEQ ID NOs 434/442; relation to H4H6245P2 not stated (antibody, V domains shown) VH: EVQLVESGGGLVQPGGSLRLSCAASGFTFNSFWMSWVRQAPGKGLEWVANIKQDGSEKYYVDSVKGRFTISRDNAKNSVYLQMNSLRAEDTAVYYCARDLVTSFDYWGQGTLVTVSS VL: DIQMTQSPSSLSASVGDRVTITCQASQDINNYLNWYQQKPGKAPKLLIYDASYLETGVPSGFSGSGSGTDFTFTISSLQPEDIATYYCQQYDSLPYTFGQGTKLEIK						near normoxic levels	near normoxic levels
